# Assay results taken from patent US5164388A, “Heterocyclic peptide renin inhibitors” (Abbott Laboratories, priority 1991, dated 1992).
# Target: T1, human renal renin (Homo sapiens, UniProt P00797)
# T1 construct: human renal renin, free from acid proteolytic activity; from tissue
# T1 sequence (P00797 67-406): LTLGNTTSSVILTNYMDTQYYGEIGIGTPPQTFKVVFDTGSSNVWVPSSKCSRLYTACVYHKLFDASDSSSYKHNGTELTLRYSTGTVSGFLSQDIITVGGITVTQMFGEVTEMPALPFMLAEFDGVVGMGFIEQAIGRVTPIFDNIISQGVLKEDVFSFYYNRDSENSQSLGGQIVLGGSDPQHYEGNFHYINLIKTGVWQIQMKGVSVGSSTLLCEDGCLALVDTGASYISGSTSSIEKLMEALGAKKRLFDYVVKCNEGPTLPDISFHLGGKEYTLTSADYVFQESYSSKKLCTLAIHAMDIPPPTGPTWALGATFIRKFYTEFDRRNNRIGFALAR
# Assay: Inhibition of human renal renin in vitro (angiotensin I formed, radioimmunoassay)
# Assay type: biochemical
# Conditions: human angiotensinogen substrate, 37 degrees C., pH 6.0
# Experimental: The novel compounds of the present invention are also useful for treating congestive heart failure. […] At the end of the incubation, the amount of angiotensin I formed is measured by radioimmunoassay and the molar concentration required to cause 50% inhibition, expressed as the IC50, is calculated.
row,Structure (SMILES),IC50 [nM]
1,"CCCCC(C(=O)N[C@@H](CC1CCCCC1)[C@@H](O)[C@@H](O)CC(C)C)N1CCN(C(=O)OC(C)(C)C)[C@@H](Cc2ccccc2)C1 (stereo partly drawn) [Example 34A, 2-(3S-Benzyl-4-N-tert-butyloxycarbonyl-piperazin-1-yl)-hexanoic acid Amide of 2(S)-Amino-1-cyclohexyl-3(R),4(S)-dihydroxy-6-methylheptane]",100
2,"CCCCC(C(=O)N[C@@H](CC1CCCCC1)[C@@H](O)[C@@H](O)CC(C)C)N1CCN(C(=O)N(C)C)[C@H](Cc2ccccc2)C1 (stereo partly drawn) [Example 35A, 2-(3R-Benzyl-4-N-dimethylaminocarbonyl-piperazin-1-yl)-hexanoic acid Amide of 2(S)-Amino-1-cyclohexyl-3(R),4(S)-dihydroxy-6-methylheptane]",91
3,"CC(C)C[C@H](O)[C@H](O)[C@H](CC1CCCCC1)NC(=O)C(Cc1cscn1)N1CCN(Cc2ccccc2)[C@H](Cc2ccccc2)C1 (stereo partly drawn) [Example 36, 3-(4-Thiazolyl)-2-(R,S)-(3R-benzyl-4-N-benzylpiperazin-1-yl)-propionic acid Amide of 2(S)-Amino-1-cyclohexyl-3(R),4(S)-dihydroxy-6-methylheptane]",330
4,"CCCCC(C(=O)N[C@@H](CC1CCCCC1)[C@@H](O)[C@@H](O)CC(C)C)N1CCN(C(=O)N2CCOCC2)[C@H](Cc2ccccc2)C1 (stereo partly drawn) [Example 38A, 2-(3R-Benzyl-4-N-(morpholin-1-yl-carbonyl)-piperazin)-1-yl-hexanoic acid Amide of 2(S)-Amino-1-cyclohexyl-3(R),4(S)-dihydroxy-6-methylheptane]",6.2
5,"CCCC[C@@H](C(=O)N[C@@H](CC1CCCCC1)[C@@H](O)[C@@H](O)CC(C)C)N1CCN(C(=O)OC(C)(C)C)[C@H](Cc2ccccc2)C1=O [Example 44, 2(S)-(3R-Benzyl-4N-tert-butyloxycarbonyl-2-keto-piperazin-1-yl)-hexanoic acid Amide of 2(S)-Amino-1-cyclohexyl-3(R),4(S)-dihydroxy-6-methylheptane]",15
6,"CCCC[C@@H](C(=O)N[C@@H](CC1CCCCC1)[C@@H](O)[C@@H](O)CC(C)C)N1CCN(C(=O)N2CCN(C)CC2)[C@H](Cc2ccccc2)C1=O [Example 47, 2(S)-(3R-Benzyl-4-N-(4-(N'-methyl)-piperazin-1-yl-carbonyl)-2-keto-piperazin-1-yl)-hexanoic acid Amide of 2(S)-Amino-1-cyclohexyl-3(R),4(S)-dihydroxy-6-methylheptane]",81
7,"CCCC[C@@H](C(=O)N[C@@H](CC1CCCCC1)[C@@H](O)[C@@H](O)CC(C)C)N1CCN(C(=O)N(C)CCOCOC)[C@H](Cc2ccccc2)C1=O [Example 48, 2(S)-(3R-Benzyl-4-N-(N-methyl-N-(methoxymethoxyethyl)-aminocarbonyl)-2-keto-piperazin-1-yl)-hexanoic acid Amide of 2(S)-Amino-1-cyclohexyl-3(R),4(S)-dihydroxy-6-methylheptane]",22
8,"CCCC[C@@H](C(=O)N[C@@H](CC1CCCCC1)[C@@H](O)[C@@H](O)CC(C)C)N1CCN(C(=O)N2CCOCC2)[C@H](Cc2ccccc2)C1=O [Example 50, 2(S)-(3R-Benzyl-4-N-morpholin-1-yl-carbonyl-2-keto-piperazin-1-yl)-hexanoicacid Amide of 2(S)-Amino-1-cyclohexyl-3(R),4(S)-dihydroxy-6-methylheptane]",22
9,"CCN1C[C@@H]([C@H](O)[C@H](CC2CCCCC2)NC(=O)[C@H](Cc2cnc[nH]2)N2C[C@H](Cc3ccccc3)N(CC(C)C)C2=O)OC1=O [Example 119, (2S)-2-(Imidazol-4-ylmethyl)-2-(3-isobutyl-(4S)-phenylmethylimidazolidin-2-one-1-yl)acetic Acid Amide of (2'S,1'R,5S)-3-Ethyl-5-(1'-hydroxy-2'-amino-3'-cyclohexylpropyl)oxazolidin-2-one]",150
10,"CCCCNC(=O)[C@H](C[C@H](O)[C@H](CC1CCCCC1)NC(=O)C(Cc1cscn1)N1CCN(C(=O)N2CCOCC2)[C@H](Cc2ccccc2)C1=O)C(C)C (stereo partly drawn) [Example 129, 3-(3-Thiazolyl)-2-(3R-benzyl-4-N-morpholin-1-yl-carbonyl-2-keto-piperazin-1-yl)-propionic acid Amide of Butyl 5(S)-amino-6-cyclohexyl-4(S)-hydroxy-2(R)-isopropylhexan-amide]",1.3
11,"CCCCNC(=O)[C@H](C[C@H](O)[C@H](CC1CCCCC1)NC(=O)C(Cc1cscn1)N1CCN(S(=O)(=O)c2ccc(C)cc2)[C@H](Cc2ccccc2)C1=O)C(C)C (stereo partly drawn) [Example 130, 3-(4-Thiazolyl)-2-(3R-benzyl-4-N-p-toluene-sulfonyl-2-keto-piperazin-1-yl)-propionic acid Amide of Butyl 5(S)-amino-6-cyclohexyl-4(S)-hydroxy-2(R)-isopropylhexan-amide]",0.73
12,"Cc1ccc(S(=O)(=O)N2CCN(C(Cc3cscn3)C(=O)N[C@@H](CC3CCCCC3)[C@@H](O)[C@@H](O)CC(C)C)C(=O)[C@H]2Cc2ccccc2)cc1 (stereo partly drawn) [Example 131, 3-(3-Thiazolyl)-2-(3R-benzyl-4-N-p-toluene-sulfonyl-2-keto-piperazin-1-yl)-propionic acid Amide of 2(S)-amino-1-cyclohexyl-3(R),4(S)-dihydroxyl-6-methylheptane]",3
13,"CCCC[C@@H](C(=O)N[C@@H](CC1CCCCC1)[C@@H](O)[C@@H](O)CC(C)C)N1CCCN(C(=O)OC(C)(C)C)[C@H](Cc2ccccc2)C1=O [Example 132, 2(S)-(3R-Benzyl-4N-tert-butyloxycarbonyl-2-keto-homopiperazin-1-yl)-hexanoic acid Amide of 2(S)-Amino-1-cyclohexyl-3(R),4(S)-dihydroxy-6-methylheptane]",340
14,"Cc1ccc(S(=O)(=O)N2CCN(C(Cc3cscn3)C(=O)N[C@@H](CC3CCCCC3)[C@@H](O)[C@@H]3C[C@H](C)CO3)C(=O)[C@H]2Cc2ccccc2)cc1 (stereo partly drawn) [Example 140, 3-(S-Thiazolyl)-2-(3R-benzyl-4-N-p-toluene-sulfonyl-2-keto-piperazin-1-yl)-propionic acid Amide of 2(S)-(2(S)-Amino-3-cyclohexyl-1(R)-hydroxy)propyl-4(S)-methyltetrahydrofuran]",3.4

# Next, values leading:
row,IC50 [nM],Structure (SMILES)
1,13,"CC(C)C[C@H](O)[C@H](O)[C@H](CC1CCCCC1)NC(=O)[C@@H](Cc1c[nH]cn1)N1CCN(C(=O)OC(C)(C)C)[C@H](Cc2ccccc2)C1=O [Example 45, 3R-(4-Imidazolyl)-2(R)-(3R-benzyl-4-N-tert-butyloxycarbonyl-2-keto-piperazin-1-yl)-propionic acid Amide of 2(S)-Amino-1-cyclohexyl-3(R),4(S)-dihydroxy-6-methylheptane]"
2,32,"CC(C)C[C@H](O)[C@H](O)[C@H](CC1CCCCC1)NC(=O)C(Cc1cscn1)N1CCN(C(=O)N2CCOCC2)[C@H](Cc2ccccc2)C1=O (stereo partly drawn) [Example 49B, 3-(4-Thiazolyl)-2-(3R-benzyl-4-N-morpholin-1-yl-carbonyl-2-keto-piperazin-1-yl)-propionic acid Amide of 2(S)-Amino-1-cyclohexyl-3(R),4(S)-dihydroxy-6-methylheptane]"
3,230,"CC(C)C[C@H](O)[C@H](O)[C@H](CC1CCCCC1)NC(=O)[C@H](Cc1c[nH]cn1)N1CCN(C(=O)N2CCOCC2)[C@H](Cc2ccccc2)C1=O [Example 51, 3-(4-Imidazolyl)-2(S)-(3R-benzyl-4-N-morpholin-1-yl-carbonyl-2-keto-piperazin-1-yl) -propionic Acid Amide of 2(S)-Amino-1-cyclohexyl-3(R),4(S)-dihydroxy-6-methylheptane]"
4,67,"CC(C)C[C@H](O)[C@H](O)[C@H](CC1CCCCC1)NC(=O)[C@H](Cc1cnc[nH]1)N1CC[C@H](Cc2ccccc2)C1=O [Example 73, (2S)-2-(Imidazol-4-ylmethyl)-2-((3S)-phenylmethyl-2-oxo-pyrrolidin-1-yl)acetic acid amide of (2S,3R,4S)-2-amino-1-cyclohexyl-3,4-dihydroxy-6-methylheptane]"
5,150,"CC(C)C[C@H](O)[C@H](O)[C@H](CC1CCCCC1)NC(=O)[C@H](Cc1cnc[nH]1)N1C[C@H](Cc2ccccc2)N(CC(C)C)C1=O [Example 118, (2S)-2-(Imidazol-4-ylmethyl)-2-(3-isobutyl-(4S)-phenylmethylimidazolidin-2-one-1-yl)acetic Acid Amide of (2)-Amino-1-cyclohexyl-3(R),4(S)-dihydroxy-6-methylheptane]"
6,650,"CC(C)C[C@H](O)[C@H](O)[C@H](CC1CCCCC1)NC(=O)[C@H](Cc1c[nH]cn1)N1C[C@H](Cc2ccccc2)NC1=O [Example 120, (2S)-2-(Imidazol-4-ylmethyl)-2-((4S)-phenylmethylimidazolidin-2-one-1-yl)acetic Acid Amide of (2S)-Amino-1-cyclohexyl-3(R),4(S)-dihydroxy-6-methylheptane]"
7,430,"CC(C)C[C@H](O)[C@H](O)[C@H](CC1CCCCC1)NC(=O)[C@H](Cc1c[nH]cn1)N1CC[C@@H](Cc2ccccc2)C1=O [Example 121, (2S)-2-(Imidazol-4-ylmethyl)-2-((3R)-phenylmethyl-2-oxopyrrolidin-1-yl)acetic Acid Amide of (2S)-Amino-1-cyclohexyl-3(R),4(S)-dihydroxy-6-methylheptane]"
8,580,"CC(C)C[C@H](O)[C@H](O)[C@H](CC1CCCCC1)NC(=O)[C@H](Cc1c[nH]cn1)N1C[C@H](Cc2ccccc2)CC1=O [Example 122, (2S)-2-(Imidazol-4-ylmethyl)-2-((4R)-phenylmethyl-2-oxopyrrolidin-1-yl)acetic Acid Amide of (2S)-Amino-1-cyclohexyl-3(R),4(S)-dihydroxy-6-methylheptane]"
